Laboratory results published in article PMC10974743, “Design, Synthesis, and Biological Evaluation of Novel Phenoxy Acetic Acid Derivatives as Selective COX-2 Inhibitors Coupled with Comprehensive Bio-Pharmacological Inquiry, Histopathological Profiling, and Toxicological Scrutiny” (Molecules, 2024).

Legend:
[1] = tested on: COX-2; conditions: cited from earlier work
[2] = tested on: carrageenan-induced paw edema; assay: Carrageenan paw edema test (paw thickness, paw weight); conditions: for Paw thickness difference: oral; for Paw thickness difference / Paw Weight Increase: mean ± SD, n = 6; for Percentage of inhibition of paw thickness: vs carrageenan group; for Paw Weight Increase: right vs left paw, after 5 h; as to all read-outs here: test concentration or dose not given here
[3] = molecular target: T1, ovine COX-1 (Ovis aries, UniProt P05979); assay: In vitro COX-1 inhibition assay (Cayman colorimetric COX inhibitor screening kit)
T1 sequence (P05979 25-600): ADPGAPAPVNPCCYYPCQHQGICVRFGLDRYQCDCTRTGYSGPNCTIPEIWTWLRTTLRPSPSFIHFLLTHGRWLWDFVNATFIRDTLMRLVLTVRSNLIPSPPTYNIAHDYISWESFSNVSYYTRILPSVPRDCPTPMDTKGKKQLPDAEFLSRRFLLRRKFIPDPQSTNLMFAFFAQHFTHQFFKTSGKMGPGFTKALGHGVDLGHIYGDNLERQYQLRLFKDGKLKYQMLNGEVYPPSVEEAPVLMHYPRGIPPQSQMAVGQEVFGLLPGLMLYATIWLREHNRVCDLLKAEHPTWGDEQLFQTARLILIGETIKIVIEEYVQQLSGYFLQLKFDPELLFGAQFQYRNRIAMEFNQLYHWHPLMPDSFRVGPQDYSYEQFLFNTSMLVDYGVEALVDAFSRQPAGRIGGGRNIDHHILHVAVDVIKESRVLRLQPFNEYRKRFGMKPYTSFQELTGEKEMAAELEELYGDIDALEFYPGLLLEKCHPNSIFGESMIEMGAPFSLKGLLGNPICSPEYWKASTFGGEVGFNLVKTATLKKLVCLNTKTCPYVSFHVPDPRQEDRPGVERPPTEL
Experimental: (§1) The in vitro enzyme assays were performed at the Biochemistry Department, Cairo
(§2) General Hospital, Egypt. Cayman® colorimetric COX (ovine) inhibitor screening assay kit (Item
(§3) enzymes in presence of all newly compounds. Generally, this kit is dependent on the reductive
(§4) reaction of COX. A specific antibody binds to PGH2 produced by COX and is further quantified
(§5) by the ELISA technique as previously reported. After that, the selectivity index (SI) was calculated
as the following equation:
𝐒𝐞𝐥𝐞𝐜𝐭𝐢𝐯𝐢𝐭𝐲 𝐢𝐧𝐝𝐞𝐱 (𝐒𝐈) = 𝐈𝐂₅₀𝐨𝐟 𝐂𝐎𝐗 − 𝟏

[4] = molecular target: T2, human COX-2 (Homo sapiens, UniProt P35354); assay: In vitro COX-2 inhibition assay (Cayman colorimetric COX inhibitor screening kit); conditions: for SI (COX-2 selectivity index): COX-1 (IC50)/COX-2 (IC50); for IC50: COX-2 IC50, mean ± SEM, n = 3
T2 sequence (P35354 18-604): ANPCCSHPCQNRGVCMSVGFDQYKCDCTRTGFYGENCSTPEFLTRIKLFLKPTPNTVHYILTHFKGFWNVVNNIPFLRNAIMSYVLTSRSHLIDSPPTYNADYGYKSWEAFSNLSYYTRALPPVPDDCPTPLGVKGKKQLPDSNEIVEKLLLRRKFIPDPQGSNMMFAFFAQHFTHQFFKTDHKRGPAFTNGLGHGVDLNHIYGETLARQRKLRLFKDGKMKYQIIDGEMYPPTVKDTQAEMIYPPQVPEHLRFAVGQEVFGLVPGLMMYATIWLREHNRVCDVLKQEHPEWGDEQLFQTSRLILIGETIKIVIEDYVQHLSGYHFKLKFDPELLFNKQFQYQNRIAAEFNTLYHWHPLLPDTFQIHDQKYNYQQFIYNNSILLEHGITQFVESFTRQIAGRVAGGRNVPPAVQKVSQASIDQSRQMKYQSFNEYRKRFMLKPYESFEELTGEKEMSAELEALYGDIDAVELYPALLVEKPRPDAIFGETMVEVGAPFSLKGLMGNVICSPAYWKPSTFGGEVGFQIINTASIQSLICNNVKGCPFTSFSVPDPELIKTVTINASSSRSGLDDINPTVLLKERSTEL
Experimental: as §1, §2, §3, §4, §5
as the following equation:
𝐒𝐞𝐥𝐞𝐜𝐭𝐢𝐯𝐢𝐭𝐲 𝐢𝐧𝐝𝐞𝐱 (𝐒𝐈) = 𝐈𝐂₅₀𝐨𝐟 𝐂𝐎𝐗 − 𝟏

IC50 [3] [nM] | SI (COX-2 selectivity index) [4] | IC50 [4] [nM] | melting point [°C] | SMILES | IC50 [1] [nM] | Paw thickness difference ([2]; 1st h after carrageenan) [mm] | Percentage of inhibition of paw thickness ([2]; 1st h) [%] | Paw thickness difference ([2]; 2nd h after carrageenan) [mm] | Percentage of inhibition of paw thickness ([2]; 2nd h) [%] | Paw thickness difference ([2]; 3rd h after carrageenan) [mm] | Percentage of inhibition of paw thickness ([2]; 3rd h) [%] | Paw thickness difference ([2]; 4th h after carrageenan) [mm] | Percentage of inhibition of paw thickness ([2]; 4th h) [%] | Paw thickness difference ([2]; 5th h after carrageenan) [mm] | Percentage of inhibition of paw thickness ([2]; 5th h) [%] | Paw Weight Increase [2] | Selectivity for COX-2 over COX-1 [1] [fold]
 |  |  |  | CS(=O)(=O)c1ccc(C2=C(c3ccccc3)C(=O)OC2)cc1 [rofecoxib] | 500 |  |  |  |  |  |  |  |  |  |  |  | 
4970 ± 60 | 55.22 | 90 ± 10 |  | O=C(O)COc1ccc(Br)cc1C=NNC(=O)CNc1ccc(Cl)cc1 [Compound 10f, 2-(4-Bromo-2-((2-((4 chlorophenyl)glycyl)hydrazineylidene)methyl)phenoxy) acetic acid] |  | 1.77 ± 0.27 | 10.39 | 2.85 ± 0.46 | 13.51 | 3.24 ± 0.46 | 23.17 | 3.63 ± 0.48 | 28.04 | 3.78 ± 0.51 | 28.80 | 59.16 ± 2.72 ^abcd % | 
4070 ± 120 | 67.83 | 60 ± 10 |  | Cc1ccc(NCC(=O)NN=Cc2cc(Br)ccc2OCC(=O)O)cc1 [Compound 10e, 2-(4-Bromo-2-((2-(p-tolylglycyl)hydrazineylidene)methyl)phenoxy)aceticacid] |  | 1.79 ± 0.39 | 9.38 | 3.00 ± 0.30 | 9.01 | 3.58 ± 0.17 | 15.28 | 3.98 ± 0.26 | 21.24 | 4.17 ± 0.24 | 21.42 | 64.95 ± 6.79 ^abcd % | 
 |  |  |  | NS(=O)(=O)c1ccc(-n2nc(C(F)(F)F)cc2-c2ccc(Br)cc2)cc1 [SC-558] |  |  |  |  |  |  |  |  |  |  |  |  | 1900
 |  |  |  | Cc1ccc(-c2ncc(Cl)cc2-c2ccc(S(C)(=O)=O)cc2)cn1 [etoricoxib] | 5000 |  |  |  |  |  |  |  |  |  |  |  | 
9500 ± 200 | 19.00 | 500 ± 100 | 221 to 222 | O=C(O)COc1ccccc1/C=N/NC(=O)CNc1ccccc1 [Compound 10a] |  |  |  |  |  |  |  |  |  |  |  |  | 
7500 ± 200 | 20.27 | 370 ± 60 | 222 to 223 | Cc1ccc(C(=O)NN=Cc2ccccc2OCC(=O)O)cc1 [Compound 5b, 2-(2-((2-(4-Methylbenzoyl)hydrazineylidene)methyl)phenoxy)acetic acid] |  |  |  |  |  |  |  |  |  |  |  |  | 
5570 ± 120 | 79.57 | 70 ± 10 |  | O=C(O)COc1ccccc1C=NNC(=O)CNc1ccc(Cl)cc1 [Compound 10c, 2-(2-((2-((4-Chlorophenyl)glycyl)hydrazineylidene)methyl)phenoxy)acetic acid] |  | 1.65 ± 0.22 | 16.47 | 2.64 ± 0.33 | 19.99 | 3.11 ± 0.29 | 26.25 | 3.81 ± 0.19 | 24.47 | 4.22 ± 0.28 | 20.54 | 69.01 ± 4.61 ^abcd % | 
8430 ± 120 | 36.65 | 230 ± 60 | 210 to 211 | O=C(O)COc1ccccc1C=NNC(=O)CNC(=O)c1ccccc1 [Compound 13a, 2-(2-((2-(Benzoylglycyl)hydrazineylidene)methyl)phenoxy)acetic acid] |  |  |  |  |  |  |  |  |  |  |  |  | 
7000 ± 200 | 87.50 | 80 ± 10 |  | O=C(O)COc1ccc(Br)cc1/C=N/NC(=O)CNc1ccccc1 [Compound 10d] |  | 1.55 ± 0.41 | 21.37 | 2.60 ± 0.21 | 21.15 | 2.93 ± 0.37 | 30.56 | 3.44 ± 0.37 | 31.87 | 3.73 ± 0.34 | 29.71 | 60.8 ± 4.27 ^abcd % | 
10000 ± 100 | 10.31 | 970 ± 60 | 209 to 211 | O=C(O)COc1ccccc1C=NNC(=O)c1ccccc1 [Compound 5a, 2-(2-((2-Benzoylhydrazineylidene)methyl)phenoxy)acetic acid] |  |  |  |  |  |  |  |  |  |  |  |  | 
7000 ± 200 | 100.00 | 70 ± 10 |  | Cc1ccc(C(=O)NN=Cc2cc(Br)ccc2OCC(=O)O)cc1 [Compound 5e, 2-(4-Bromo-2-((2-(4-methylbenzoyl)hydrazineylidene)methyl)phenoxy)acetic acid] |  | 1.57 ± 0.4 | 20.35 | 2.53 ± 0.48 | 23.28 | 3.43 ± 0.10 | 18.71 | 3.55 ± 0.11 | 29.59 | 3.68 ± 0.15 | 30.72 | 47.55 ± 2.41 ^abcd % | 
9030 ± 150 | 112.87 | 80 ± 10 |  | O=C(O)COc1ccc(Br)cc1C=NNC(=O)c1ccccc1 [Compound 5d, 2-(2-((2-Benzoylhydrazineylidene)methyl)-4-bromophenoxy)acetic acid] |  | 1.37 ± 0.13 | 30.57 | 2.76 ± 0.24 | 16.19 | 3.56 ± 0.33 | 15.67 | 3.7 ± 0.32 | 26.75 | 3.90 ± 0.41 | 26.51 | 76.92 ± 3.89 ^abcd % | 
4970 ± 60 | 15.06 | 330 ± 60 | 236 to 238 | Cc1ccc(NCC(=O)NN=Cc2ccccc2OCC(=O)O)cc1 [Compound 10b, 2-(2-((2-(4-Tolylglycyl)hydrazineylidene)methyl)phenoxy)acetic acid] |  |  |  |  |  |  |  |  |  |  |  |  | 
9930 ± 120 | 76.38 | 130 ± 60 | 248 to 250 | O=C(O)COc1ccc(Br)cc1C=NNC(=O)CNC(=O)c1ccccc1 [Compound 13b, 2-(2-((2-(Benzoylglycyl)hydrazineylidene)methyl)-4-bromophenoxy)acetic acid] |  |  |  |  |  |  |  |  |  |  |  |  | 
10000 ± 200 | 76.92 | 130 ± 60 | 214 to 215 | O=C(O)COc1ccccc1C=NNC(=O)Cc1ccccc1 [Compound 7a, 2-(2-((2-(2-Phenylacetyl)hydrazineylidene)methyl)phenoxy)acetic acid] |  |  |  |  |  |  |  |  |  |  |  |  | 
14500 ± 200 | 111.53 | 130 ± 60 | 241 to 243 | O=C(O)COc1ccccc1C=NNC(=O)c1ccc(Cl)cc1 [Compound 5c, 2-(2-((2-(4-Chlorobenzoyl)hydrazineylidene)methyl)phenoxy)acetic acid] |  |  |  |  |  |  |  |  |  |  |  |  | 
